# In ChEMBL document CHEMBL1126342, “Synthesis and preliminary biological evaluation of 1-aminomethyl-4-substituted-4-H-pyrrolo[2,1-C][1,4] benzothiazines, a new class of calcium antagonists” (Bioorg Med Chem Lett, 1992):
# “And” between values parts separate entries of the source, which are not always exact repeats. Equal values may be shown once.
# Columns and labels:
# [1] = target: Voltage-gated L-type calcium channel (Rattus norvegicus, UniProt P22002+Q02485+P27732); assay: Displacement of [3H]nitrendipine from calcium channel receptor; format: protein assay
# [2] = species: Mus musculus; assay: Blocking calcium channels in mice using electrophysiological technique at 10 uM; format: functional
# [3] = species: Mus musculus; assay: Blocking calcium channels in mice using electrophysiological technique at 100 uM; format: functional
SMILES,IC50 [1],Ki [1],Activity [2],Activity [3]
CN(C)Cc1ccc2n1-c1ccccc1SC2c1ccccc1 (centres undefined),315 nM,118 nM,40% and 65%,–
COc1ccc(C2Sc3ccccc3-n3c(CN(C)C)ccc32)cc1 (centres undefined),–,–,20%,62%
COc1ccc([C@@H]2Sc3ccccc3N(CCN(C)C)C(=O)[C@@H]2OC(C)=O)cc1 [DILTIAZEM],–,–,24%,62%
CCC(C)NCc1ccc2n1-c1ccccc1SC2c1ccc(OC)cc1OC (centres undefined),14.8 nM,5.55 nM,–,–
COc1ccc(C2Sc3ccccc3-n3c(CN(C)C)ccc32)c(OC)c1 (centres undefined),150 nM,56 nM,24%,74%
COc1ccc(C2Sc3ccccc3-n3c(CNCCc4ccc(OC)c(OC)c4)ccc32)cc1 (centres undefined),534 nM,200 nM,–,–
COc1ccc(C2Sc3ccccc3-n3c(CN(C)CCc4ccc(OC)c(OC)c4)ccc32)cc1.Cl (centres undefined),53 nM,19 nM,–,–
COc1ccc(C2Sc3ccccc3-n3c(CNc4ccc(F)cc4)ccc32)cc1 (centres undefined),5870 nM,2200 nM,–,–
